Measured values from US12377112B2, “Methods of treating neurocognitive disorders, chronic pain and reducing inflammation” (priority 2019, dated 2025).

How the values were obtained:
patients = conditions: human, in vivo; cited from earlier work
male CD1 mice = assay: Pentylenetetrazol (PTZ) infusion seizure threshold; format: in vivo, mouse; conditions: 10 mg/kg
Excerpt: Administration of chemical convulsant agents such as Pentylenetetrazol (PTZ) are used to mimic behavioral aspects of human epilepsy. PTZ causes myoclonic jerking movements, clonic convulsions or forelimb/hindlimb tonic extension in rodents. The PTZ model is primarily used to evaluate anti-convulsant properties of antiepileptic drugs (AED's) by identifying compounds which raise seizure threshold but can also be used to identify pro-convulsant agents that lower seizure threshold. PTZ is a well-established model for acute and repetitive seizures, and is accepted for use for screening AED action. PTZ induces myoclonic and generalized tonic-clonic seizures.
Male CD1 mice (age 6-8 weeks, weight 30.0-42.9 g, source: Charles River UK) were used in this study. […] During this time-infusion, mice were individually assessed for the onset of myoclonic, forelimb tonus and hindlimb tonus seizures. The latencies (in seconds) from start of infusion to the appearance of first myoclonus, forelimb tonic and hind limb tonic extension were recorded. […] For animals reaching this cut off, the dose of PTZ in mg/kg infused over the 120 s was calculated as the threshold dose. […]
Data was analysed using one way ANOVA in which the dose of PTZ required to induce seizure was compared between each treatment groups and vehicle. […]

Wistar-Kyoto (WKY) rats = assay: Sleep-wake amounts (EEG/EMG) in Wistar-Kyoto rats; format: in vivo, rat; conditions: 5 mg/kg and 10 mg/kg s.c.
Excerpt: Since WKY rats show decreased sensitivity to conventional monoamine-based antidepressant treatment, they are used as a model of TRD.
Male (WKY) rats (200-250 g) were implanted with electroencephalography (EEG) and electromyography (EMG) electrodes and telemetry transmitters under general anaesthesia (2-5% isoflurane in Oxygen). A telemetry transmitter (HD-502, Data Sciences International) was placed in the peritoneal cavity, and the wires of the transmitter were passed through the muscle wall and then sub-dermally to the scalp to act as EEG/EMG electrodes. Two bore holes were made in the skull (Fronto-parietal coordinates; Bregma +2 mm anterior, midline +1.0 mm lateral and Lambda 0 mm, +1.5 mm lateral). The positive EEG electrode was attached to the anterior bore hole and the negative EEG electrode to the posterior bore hole. Both electrodes were secured in place using a suitable adhesive agent (Cyanoacrylate gel, RS components). […]
Animals were maintained on a 12/12 hour light dark cycle. On study days, the animals were placed in recording boxes and EEG/EMG, locomotor activity, as well as body temperature were recorded for 0.5 h before and 24 h after each dosing. […]
The subsequent EEG/EMG recordings were automatically scored as wake, non-REM (NREM) sleep, or REM sleep in 10 second epochs using SleepSign (Kissei Comtec, Japan). […]

[1] = tested on: children aged 7 to 14 years old with ADHD; conditions: 6-week trial, children aged 7 to 14 years with ADHD; cited from earlier work
[2] = tested on: human iPSC-derived neurons; assay: Neurite outgrowth in human iPSC-derived neurons; format: cell-based
Method: The neurotrophic effect of psilocin was tested on human iPSC-derived neuronal cultures. Two parameters were evaluated: the average number of neurites per neuron, and the average total neurite length per neuron. Briefly, neurons establish physical connections between them in order to create neuronal networks.
Cryopreserved iCell neurons were thawed and plated according to Cellular Dynamics International instructions. The pharmacological treatments were carried out 2 hours after the cell plating. The cells were maintained in a humidified incubator at 37° C. in 5% CO2-95% air atmosphere.
Stock solutions of psilocin were prepared in 100% DMSO at 1000 times the final concentration in the culture media (1000× concentration).
For each culture, each condition was performed in sextuplet.
Each plate contained two types of other experimental conditions: the control condition treated with vehicle and the culture treated with Brain-derived neutrophic factor (BDNF).
Plate 1 and 2: Cells were treated with psilocin at 3 different concentrations: 0.03 μM, 0.1 μM, 0.3 μM. The stock solution was prepared fresh in 100% DMSO at 10 mM. BDNF was used in parallel.
Ten days after plating, cultures were fixed with paraformaldehyde in PBS (phosphate buffered saline) (4%, Sigma). Then, cells were successively permeabilized, saturated with PBS (containing 3% of BSA) and incubated for 1 h with anti-beta III tubulin antibody (Sigma) at 1/10 000 in PBS containing 0.5% of BSA (bovine serum albumin). Cells were first washed and were then incubated 1 h with goat anti-mouse antibody coupled with AF488 (Invitrogen A11001) diluted at 1/1000 in PBS containing 0.5% of BSA. Finally, nuclei are stained with DAPI 1 mg/ml at 1/1000 in PBS containing 0.5% of BSA. After rinsing them with PBS, the plate was filmed and neurite networks were examined and analyzed using High-Content Screening (CellInsight, Thermo Scientific).
The evaluation of neurite outgrowth was performed using the average number of neurites per neuron and the average of total neurite length per neuron, using Sholl method (Bird & Cuntz, 2019). (See FIG. 59A, FIG. 59B, FIG. 60A, FIG. 60B).

[3] = tested on: rat embryo mesencephalic cells, 6-OHDA; assay: 6-OHDA damage on mesencephalic neuronal cultures (TH positive neurons); format: cell-based; conditions: 1 μM, 3 μM and 10 μM, one hour prior to 15 μM 6-OHDA
Method: The neuroprotective effect of psilocin against 6-OHDA-mediated injury on mesencephalic neuronal cultures was investigated.
A primary culture of rat embryo mesencephalic cells was plated on a 96-well plate. The cells were maintained at 37° C. in 5% CO2. Half of the medium was changed on day 2.
On day 6, the culture medium was removed and replaced by media containing psilocin (0.03 μM, 0.1 μM, 0.3 μM, 1 μM, 3 μM, or 10 μM), a negative control (saline vehicle, labelled control in FIG. 10), or a positive control (brain-derived neurotrophic factor (BDNF) and glial cell-derived neurotrophic factor (GDNF))). After one hour, 15 μM 6-OHDA was added for 48 hours.
On day 8, immunodetection was used to determine the number of tyrosine hydroxylase positive neurons.
Neuronal viability was assessed 48 hours after 6-OHDA intoxication and measured by the number of TH (tyrosine hydroxylase) positive neurons. The compound 6-OHDA kills specifically dopaminergic neurons, mimicking the cellular pathophysiology of Parkinson's disease. […] The result for each well was expressed as a percentage by setting the density of tyrosine hydroxylase positive cells under control conditions to 100%. The result for each condition was reported as mean (±S.E.M.) from 4 independent cultures.

[4] = tested on: rat primary hippocampal culture, Aβ 1-40 intoxication; assay: Fibrillated amyloid-β damage on cultures of hippocampal neurons (MTT viability); format: cell-based
Excerpt: Amyloid-β toxicity is a hallmark of Alzheimer's disease, and is also frequently seen in multiple sclerosis lesions. In this study, the neuroprotective effect of psilocin on amyloid-β-induced neuronal death in rat primary hippocampal culture was investigated.
Female Wistar rats of 19 days gestation were killed by cervical dislocation and foetuses were removed from the uterus. Their brains were placed in ice-cold medium of Leibovitz (L15, Gibco, Fisher bioblock, France). Hippocampi were carefully removed, and the hippocampal neurons were dissociated by trypsinization for 30 min at 37° C. (trypsin-EDTA, Gibco) in presence of 0.1 mg/ml DNAse I (Roche, France). […] Viable cells were counted in a Neubauer cytometer using the trypan blue exclusion test (Sigma). […]
Psilocin was added to cells 10 minutes or 48 hours before amyloid-β intoxication. Neuronal viability was assessed 48 hours after amyloid-β intoxication. […]
Two days after Aβ exposure (day 11), cell viability was assessed by a measurement of cell metabolic activity using the CellTiter96® non-radioactive kit (MTT, Promega, Charbonnières, France). […] Solubilization solution was added and visible wavelength absorbance data was collected 4 hours later using a 96-well plate reader at 570 nm and 630 nm for non-specific background (Multiskan EX, Thermo Fisher).

In the case of `CNCC[C@@H](Oc1ccccc1C)c1ccccc1` [Atomoxetine, atomoxetine], the “Decreased appetite, % of patients” value (patients) is listed as 15-20%.

In the case of `CN1C(=O)CN=C(c2ccccc2)c2cc(Cl)ccc21` [Diazepam, diazepam], the “Dose of PTZ required to induce myoclonic, forelimb and hindlimb tonic seizures” value (male CD1 mice) is reported as “significantly increased”.

With `CNC1(c2ccccc2Cl)CCCCC1=O` (centres unmarked) [ketamine] the “Amount of REM sleep” value (Wistar-Kyoto (WKY) rats) was “decreased the amount of REM sleep in a dose-dependent manner”.

For `NC(=O)C[S+]([O-])C(c1ccccc1)c1ccccc1` (centres unmarked) [modafinil], the “Response rate compared to placebo” value [1] is listed as 78%.

In the case of `CN(C)CCc1c[nH]c2cccc(O)c12` [psilocin], the “Average lengths of neurites” value ([2]; 0.03 μM, treated at Day 0) is reported as “significant increases”, the “Average length of neurites” value ([2]; 0.03 μM, treated at Day 3) is reported as “increase” and the “Number of neurites per neurons” value ([2]; 0.03 μM, treated at Day 3) is reported as “increase”. For the same compound, the Length of neurites ([2]; 0.1 μM) was “increased”, the “Neuronal viability (TH positive neurons) after 6-OHDA” value [3] was “increased neuronal viability” and the “Neuronal viability after amyloid-β” value ([4]; 10 μM, applied 10 minutes prior to amyloid-β) was “increased neuronal viability”. The “Neuronal viability after amyloid-β” value ([4]; 0.3, 1, 3 and 10 μM, applied 48 hours prior to amyloid-β) was “increased neuronal viability”.
